These results are taken from patent US9751837B2, “Kinase inhibitors” (RESPIVERT LIMITED, priority 2014, dated 2017).

Converted amounts (≈) assume the structure as drawn.

GSK 3α, sequence (P49840 whole entry): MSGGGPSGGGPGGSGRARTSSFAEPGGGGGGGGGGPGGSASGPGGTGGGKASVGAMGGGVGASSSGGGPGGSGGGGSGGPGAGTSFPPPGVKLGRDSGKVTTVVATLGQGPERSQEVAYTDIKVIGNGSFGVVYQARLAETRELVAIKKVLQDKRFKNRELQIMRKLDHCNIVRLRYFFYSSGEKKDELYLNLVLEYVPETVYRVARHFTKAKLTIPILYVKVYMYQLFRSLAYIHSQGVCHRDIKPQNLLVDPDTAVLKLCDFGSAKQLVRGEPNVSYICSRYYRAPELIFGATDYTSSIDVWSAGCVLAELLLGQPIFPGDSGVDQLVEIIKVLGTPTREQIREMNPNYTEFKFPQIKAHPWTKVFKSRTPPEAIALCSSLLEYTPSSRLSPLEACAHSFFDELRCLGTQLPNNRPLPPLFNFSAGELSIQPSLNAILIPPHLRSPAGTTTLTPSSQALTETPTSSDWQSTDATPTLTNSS

The target of the first series is GSK 3α (Homo sapiens (Human), UniProt P49840). Nature of the series: GSK 3α enzyme inhibition (Method 2), Z-LYTE FRET. The series is classed as biochemical. To be noted: read-out: IC50 Values for Enzyme Inhibition GSK3α. As for the experimental part:
The enzyme inhibitory activities of compounds disclosed herein are determined by FRET using synthetic peptides labelled with both donor and acceptor fluorophores (Z-LYTE, Invitrogen Ltd., Paisley, UK).
The following two assay variants can be used for determination of GSK 3α inhibition.
The inhibitory activities of compounds of the invention against the GSK 3α enzyme isoform (Invitrogen), are evaluated by determining the level of activation/phosphorylation of the target peptide. The GSK3-α protein (500 ng/mL, 2.5 μL) is mixed with the test compound (2.5 μL at either 4 μg/mL, 0.4 μg/mL, 0.04 μg/mL, or 0.004 μg/mL) for 2 hr at RT. The FRET peptide (8 μM, 2.5 μL), which is a phosphorylation target for GSK3α, and ATP (40 μM, 2.5 μL) are then added to the enzyme/compound mixture and the resulting mixture incubated for 1 hr. Development reagent (protease, 5 μL) is added for 1 hr prior to detection in a fluorescence microplate reader (Varioskan® Flash, ThermoFisher Scientific).
In all cases, the site-specific protease cleaves non-phosphorylated peptide only and eliminates the FRET signal. Phosphorylation levels of each reaction are calculated using the ratio of coumarin emission (donor) over fluorescein emission (acceptor), for which high ratios indicate high phosphorylation and low ratios indicate low phosphorylation levels.
This method follows the same steps as Method 1 above, but utilises a shorter period of mixing of the test compound (105 minutes instead of 2 hours) with the GSK3-α protein. In addition, the concentrations of test compound employed are either 10 μg/mL, 1 μg/mL, 0.1 μg/mL, or 0.01 μg/mL
With `COc1cc(Nc2cc(Oc3ccc(NC(=O)Nc4cc(C(C)(C)C)cc(NS(C)(=O)=O)c4OC)c4ccccc34)ccn2)ccc1C(=O)N(C)CCCN1CCOCC1` [17(af), 4-[[4-[[4-[[5-tert-butyl-3-(methanesulfonamido)-2-methoxy-phenyl]carbamoylamino]-1-naphthyl]oxy]-2-pyridyl]amino]-2-methoxy-N-methyl-N-(3-morpholinopropyl)benzamide], the IC50 was determined as 680 nM.

Consider `COCCOCCOCCNC(=O)c1ccc(Nc2cc(Oc3ccc(NC(=O)Nc4cc(C(C)(C)C)cc(NS(C)(=O)=O)c4OC)c4ccccc34)ccn2)cc1OC` [Example 5, 4-((4-((4-(3-(5-(tert-Butyl)-2-methoxy-3-(methylsulfonamido)phenyl)ureido)naphthalen-1-yl)oxy)pyridin-2-yl)amino)-2-methoxy-N-(2-(2-(2-methoxyethoxy)ethoxy)ethyl)benzamide], for which the IC50 is 1340 nM.

For `COc1cc(Nc2cc(Oc3ccc(NC(=O)Nc4cc(C(C)(C)C)cc(NS(C)(=O)=O)c4OC)c4ccccc34)ccn2)ccc1C(=O)NCCN(C)CCO` [17(ac), 4-[[4-[[4-[[5-tert-butyl-3-(methanesulfonamido)-2-methoxy-phenyl]carbamoylamino]-1-naphthyl]oxy]-2-pyridyl]amino]-N-[2-[2-hydroxyethyl(methyl)amino]ethyl]-2-methoxy-benzamide], the IC50 was 3020 nM.

Take `COc1cc(Nc2cc(Oc3ccc(NC(=O)Nc4cc(C(C)(C)C)cc(C(N)=O)c4OC)c4ccccc34)ccn2)ccc1C(=O)NCCN1CCOCC1` [Example 4, 4-((4-((4-(3-(5-(tert-Butyl)-3-carbamoyl-2-methoxyphenyl)ureido)naphthalen-1-yl)oxy)pyridin-2-yl)amino)-2-methoxy-N-(2-morpholinoethyl)benzamide]: the IC50 turned out to be 2020 nM.

`COc1cc(Nc2cc(Oc3ccc(NC(=O)Nc4cc(C(C)(C)C)cc(NS(C)(=O)=O)c4OC)c4ccccc34)ccn2)ccc1C(=O)NCCN1CCC(O)CC1` [17(m), 4-[[4-[[4-[[5-tert-butyl-3-(methanesulfonamido)-2-methoxy-phenyl]carbamoylamino]-1-naphthyl]oxy]-2-pyridyl]amino]-N-[2-(4-hydroxy-1-piperidyl)ethyl]-2-methoxy-benzamide]: the IC50 worked out at 2770 nM.

Turning to `COc1cc(Nc2cc(Oc3ccc(NC(=O)Nc4cc(C(C)(C)C)cc(NS(C)(=O)=O)c4OC)c4ccccc34)ccn2)ccc1C(=O)NCCCCC(=O)O` [17(s), 5-[[4-[[4-[[4-[[5-tert-butyl-3-(methanesulfonamido)-2-methoxy-phenyl]carbamoylamino]-1-naphthyl]oxy]-2-pyridyl]amino]-2-methoxy-benzoyl]amino]pentanoic acid], the concentration for half-maximal inhibition (IC50) came out at 394 nM.

With `COc1cc(Nc2cc(Oc3ccc(NC(=O)Nc4cc(C(C)(C)C)cc(NS(C)(=O)=O)c4OC)c4ccccc34)ccn2)ccc1C(=O)NCCCN1CCCOCC1` [17(aj), 4-[[4-[[4-[[5-tert-butyl-3-(methanesulfonamido)-2-methoxy-phenyl]carbamoylamino]-1-naphthyl]oxy]-2-pyridyl]amino]-2-methoxy-N-[3-(1,4-oxazepan-4-yl)propyl]benzamide], the IC50 was found to be 2640 nM.

Regarding `COc1cc(Nc2cc(Oc3ccc(NC(=O)Nc4cc(C(C)(C)C)cc(NS(C)(=O)=O)c4OC)c4ccccc34)ccn2)ccc1C(=O)NCCN1CCS(=O)(=O)CC1` [17(r), 4-[[4-[[4-[[5-tert-butyl-3-(methanesulfonamido)-2-methoxy-phenyl]carbamoylamino]-1-naphthyl]oxy]-2-pyridyl]amino]-N-[2-(1,1-dioxo-1,4-thiazinan-4-yl)ethyl]-2-methoxy-benzamide], the IC50 was found to be 4040 nM.

As to `COc1cc(Nc2cc(Oc3ccc(NC(=O)Nc4cc(C(C)(C)C)cc(NS(C)(=O)=O)c4OC)c4ccccc34)ccn2)ccc1C(=O)NCCCN1CCN(C)CC1` [17(aa), 4-[[4-[[4-[[5-tert-butyl-3-(methanesulfonamido)-2-methoxy-phenyl]carbamoylamino]-1-naphthyl]oxy]-2-pyridyl]amino]-2-methoxy-N-[3-(4-methylpiperazin-1-yl)propyl]benzamide], the 50% inhibitory concentration (IC50) is 2930 nM.

For `COc1cc(Nc2cc(Oc3ccc(NC(=O)Nc4cc(C(C)(C)C)cc(NS(C)(=O)=O)c4OC)c4ccccc34)ccn2)ccc1C(=O)NCC(C)(C)N1CCOCC1` [17(n), 4-[[4-[[4-[[5-tert-butyl-3-(methanesulfonamido)-2-methoxy-phenyl]carbamoylamino]-1-naphthyl]oxy]-2-pyridyl]amino]-2-methoxy-N-(2-methyl-2-morpholino-propyl)benzamide], the IC50 is > 11900 nM.

As to `COc1c(NC(=O)Nc2ccc(Oc3ccnc(Nc4ccc(C(=O)O)cc4)c3)c3ccccc23)cc(C(C)(C)C)cc1NS(C)(=O)=O` [17(t), 4-[[4-[[4-[[5-tert-butyl-3-(methanesulfonamido)-2-methoxy-phenyl]carbamoylamino]-1-naphthyl]oxy]-2-pyridyl]amino]benzoic acid], the IC50 stood at 140 nM.

In the case of `COc1c(NC(=O)Nc2ccc(Oc3ccnc(Nc4ccc(OCCN5CCOCC5)c(C#N)c4)c3)c3ccccc23)cc(C(C)(C)C)cc1NS(C)(=O)=O` [Example 9, N-(5-(tert-Butyl)-3-(3-(4-((2-((3-cyano-4-(2-morpholinoethoxy)phenyl)amino)pyridin-4-yl)oxy)naphthalen-1-yl)ureido)-2-methoxyphenyl)methanesulfonamide], the IC50 is 4340 nM.

Regarding `COc1cc(Nc2cc(Oc3ccc(NC(=O)Nc4cc(C(C)(C)C)cc(NS(C)(=O)=O)c4OC)c4ccccc34)ccn2)ccc1C(=O)NCCN1CC[S+]([O-])CC1` [Example 7, 4-((4-((4-(3-(5-(tert-Butyl)-2-methoxy-3-(methylsulfonamido)phenyl)ureido)naphthalen-1-yl)oxy)pyridin-2-yl)amino)-2-methoxy-N-(2-(1-oxidothiomorpholino)ethyl)benzamide], the IC50 stood at 1100 nM.

For the compound `COc1cc(Nc2cc(Oc3ccc(NC(=O)Nc4cc(C(C)(C)C)cc(NS(C)(=O)=O)c4OC)c4ccccc34)ccn2)ccc1C(=O)NCCN1CCCN(C)CC1` [17(f), 4-[[4-[[4-[[5-tert-butyl-3-(methanesulfonamido)-2-methoxy-phenyl]carbamoylamino]-1-naphthyl]oxy]-2-pyridyl]amino]-2-methoxy-N-[2-(4-methyl-1,4-diazepan-1-yl)ethyl]benzamide], the IC50 turned out to be 1090 nM.

For `COc1cc(Nc2cc(Oc3ccc(NC(=O)Nc4cc(C(C)(C)C)cc(NS(C)(=O)=O)c4OC)c4ccccc34)ccn2)ccc1S(=O)(=O)N(C)CCCN1CCOCC1` [Example 13, 1-[5-tert-Butyl-3-(methanesulfonamido)-2-methoxy-phenyl]-3-[4-[[2-[3-methoxy-4-[methyl(3-morpholinopropyl)sulfamoyl]anilino]-4-pyridyl]oxy]-1-naphthyl]urea], the IC50 was determined as 3630 nM.

Turning to `COc1c(NC(=O)Nc2ccc(Oc3ccnc(Nc4ccc(OCCCN5CCOCC5)c(C#N)c4)c3)c3ccccc23)cc(C(C)(C)C)cc1NS(C)(=O)=O` [Example 10, N-(5-(tert-Butyl)-3-(3-(4-((2-((3-cyano-4-(3-morpholinopropxy)phenyl)amino)pyridin-4-yl)oxy)naphthalen-1-yl)ureido)-2-methoxyphenyl)methanesulfonamide], the IC50 was found to be 5560 nM.

For `COc1cc(Nc2cc(Oc3ccc(NC(=O)Nc4cc(C(C)(C)C)cc(NS(C)(=O)=O)c4OC)c4ccccc34)ccn2)ccc1C(=O)NCCN1CCSCC1` [17(l), 4-[[4-[[4-[[5-tert-butyl-3-(methanesulfonamido)-2-methoxy-phenyl]carbamoylamino]-1-naphthyl]oxy]-2-pyridyl]amino]-2-methoxy-N-(2-thiomorpholinoethyl)benzamide], the IC50 is > 12100 nM.

In the case of `COCCOCCOC[C@@H](C)NC(=O)c1ccc(Nc2cc(Oc3ccc(NC(=O)Nc4cc(C(C)(C)C)cc(NS(C)(=O)=O)c4OC)c4ccccc34)ccn2)cc1OC` [17(g), 4-[[4-[[4-[[5-tert-butyl-3-(methanesulfonamido)-2-methoxy-phenyl]carbamoylamino]-1-naphthyl]oxy]-2-pyridyl]amino]-2-methoxy-N-[(1R)-2-[2-(2-methoxyethoxy)ethoxy]-1-methyl-ethyl]benzamide], the half-maximal inhibitory concentration (IC50) turned out to be 4100 nM.

With `COCCOCCOCCS(=O)(=O)c1ccc(Nc2cc(Oc3ccc(NC(=O)Nc4cc(C(C)(C)C)cc(NS(C)(=O)=O)c4OC)c4ccccc34)ccn2)cc1OC` [Example 12, 1-[5-tert-Butyl-3-(methanesulfonamido)-2-methoxy-phenyl]-3-[4-[[2-[3-methoxy-4-[2-[2-(2-methoxyethoxy)ethoxy]ethylsulfonyl]anilino]-4-pyridyl]oxy]-1-naphthyl]urea], the IC50 is 2140 nM.

System in the next series: not listed separately
Put plainly: Solubility in fasted-state simulated colonic fluid (FaSSCoF) at pH 6.5. To be noted: 25 °C, pH 6.5, fassgf or other biorelevant, thermodynamic from solid, pH 6.5 FaSSCoF Solubility (mg/mL) Run 1. It is filed as physicochemical. The method in brief:
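Compounds were suspended at up to 2-10 mg/mL in pH 6.5 Tris/maleate FaSSCoF containing a five-bile-acid mixture, phosphatidylcholine, palmitic acid and BSA. After 24 h equilibration at 25° C the suspension was filtered and the filtrate quantified by HPLC peak area against a standard.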
Regarding `COc1cc(Nc2cc(Oc3ccc(NC(=O)Nc4cc(C(C)(C)C)cc(NS(C)(=O)=O)c4OC)c4ccccc34)ccn2)ccc1C(=O)N(C)CCCN1CCOCC1` [17(af), 4-[[4-[[4-[[5-tert-butyl-3-(methanesulfonamido)-2-methoxy-phenyl]carbamoylamino]-1-naphthyl]oxy]-2-pyridyl]amino]-2-methoxy-N-methyl-N-(3-morpholinopropyl)benzamide], the thermodynamic solubility at 24 h was 10 µg/mL (≈ 11.9 µM).

The same series, now with this note: 25 °C, pH 6.5, fassgf or other biorelevant, thermodynamic from solid, pH 6.5 FaSSCoF Solubility (mg/mL) Run 2.
Take `COc1cc(Nc2cc(Oc3ccc(NC(=O)Nc4cc(C(C)(C)C)cc(NS(C)(=O)=O)c4OC)c4ccccc34)ccn2)ccc1C(=O)N(C)CCCN1CCOCC1` [17(af), 4-[[4-[[4-[[5-tert-butyl-3-(methanesulfonamido)-2-methoxy-phenyl]carbamoylamino]-1-naphthyl]oxy]-2-pyridyl]amino]-2-methoxy-N-methyl-N-(3-morpholinopropyl)benzamide]: the solubility (thermodynamic) at 24 h was 10 µg/mL (≈ 11.9 µM).
